Laboratory results reported in publication PMC10290335 (Malaria Journal, 2023).
Values after ≈ are worked out from the molar mass of the structure shown. Values joined by “and” are separate entries in the source; they are usually repeats but may differ in a detail not shown here. Equal entries are not always repeated. “Also recorded” adds a separate entry of the source. Where two headings read alike, the source gives them in different places.

Tests used:
[1] = plasma, single oral 12 mg ivermectin, mean ± SD; cited from earlier work
[2] = cited from earlier work
[3] = test system: Anopheles stephensi mosquitoes; assay: Anopheles stephensi membrane feeding screening assay (survival and activity); type: in vivo; conditions: for Average activity score: score +2 flying, +1 moving, 0 dead; for mean survival of mosquitoes after blood meal: blood meal at Cmax level; for mosquitoes dead after 72 h: blood meal at Cmax level (ivermectin 50 ng/mL), 72 h after treatment; for activity against An. stephensi: at Cmax levels observed in clinical PK samples
Method: The final DMSO content in blood was 0.1%, which was also the DMSO concentration used for the negative control assays (0.1% DMSO in blank blood). Inclusion of blank fractions as additional negative controls were not considered, because it would not have been feasible to also test the corresponding blank fraction for each metabolite fraction (F1–F9). The blood preparations were rotated at room temperature for 20 min to ensure a uniform metabolite distribution (Rotator Genie, Scientific Industries, Bohemia, USA). The dissolution of the metabolites was confirmed by LC–MS/MS.
Around 50–70 female mosquitoes aged 5–10 days post-emergence were transferred with a mouth aspirator into 20 mL paper cups. A piece of mosquito netting was used to cover the cups. Mosquitoes were starved for 24 h before treatment. The mosquito blood meals were heated in a water bath (SAHARA PPO S5P Heated Bath Circulators, Thermo Fisher Scientific, New Hampshire, USA) for 20 min at 39 °C. A Petri dish (35 mm × 10 mm, BD, Franklin Lakes, USA) was filled with 3 mL of warm blood, sealed with a piece of sealing film (Parafilm®, Huberlab AG, Aesch, Switzerland). The Petri dish was placed upside down on top of the net sealing the paper cup. Female mosquitoes were allowed to feed for 20 min on the blood through the net and the sealing film. The feeding was conducted in a climate chamber (HPP110, Memmert GmbH + Co.KG, Schwabach, Germany) at 27 °C, 70% humidity, and 30% light intensity. After feeding, the cups were put on ice to immobilise the mosquitoes and only the fully engorged mosquitoes were selected for the assay. The mosquitoes were returned to the climate chamber to assess their activity and survival for 3 days.
In the framework of screening assays, mosquitoes were treated with blood containing each metabolite corresponding to Cmax levels observed in PK samples. […] In screening assays, eleven treatments were evaluated with three replicates using three batches of 50–70 mosquitoes.

rh CYP3A4 supersomes = molecular target: T1, rh CYP3A4 supersomes (Homo sapiens, UniProt P08684); assay: Ivermectin metabolism by recombinant human CYP3A4 supersomes; type: in vitro ADME; conditions: 10 µM ivermectin
T1 construct: purchased Corning Life Sciences B.V. (Amsterdam, The Netherlands)
T1 sequence (P08684 whole entry): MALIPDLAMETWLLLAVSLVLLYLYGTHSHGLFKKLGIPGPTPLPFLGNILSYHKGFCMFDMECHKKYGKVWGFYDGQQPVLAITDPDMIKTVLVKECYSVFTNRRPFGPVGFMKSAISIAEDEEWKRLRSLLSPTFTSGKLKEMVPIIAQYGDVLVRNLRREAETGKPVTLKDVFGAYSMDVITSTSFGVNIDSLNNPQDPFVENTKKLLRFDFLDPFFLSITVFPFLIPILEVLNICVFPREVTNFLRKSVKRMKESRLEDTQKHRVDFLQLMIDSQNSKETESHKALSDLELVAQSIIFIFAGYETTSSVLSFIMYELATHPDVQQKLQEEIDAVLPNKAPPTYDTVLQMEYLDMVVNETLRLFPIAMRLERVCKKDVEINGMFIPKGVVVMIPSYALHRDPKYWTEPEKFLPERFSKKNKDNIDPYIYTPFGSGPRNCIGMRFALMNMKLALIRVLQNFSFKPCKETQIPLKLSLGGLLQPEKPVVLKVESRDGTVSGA
Method: (§1) The assay mixture was heated for 10 min at 37 °C in a Thermomixer 5436 (Eppendorf, Hamburg, Germany) and the reaction was initiated by the addition of supersomes. Samples (50 μL) were taken after 0, 15, 30, 45, and 60 min. […] After centrifugation (30 min at 3220×g and 15 °C, 5810 R Eppendorf centrifuge), sample supernatants (10 µL) were analysed by LC–MS/MS. Metabolite production was quantified by dividing the metabolite peak area with the ISTD peak area. Each metabolism assay was performed in triplicate.

[4] = test system: Anopheles stephensi mosquitoes; assay: 3-day LC50 in Anopheles stephensi (membrane feeding, dilutions); type: in vivo; conditions: 72 h after blood feeding
Method: A pilot test was performed to evaluate optimal dilutions matching the expected LC50 values (data not shown).
Student's t test was adopted to test the significance of all mean survival differences between groups, using the R package ggsignif (version 0.6.4). Survival analyses, summary and visualisation of survival analysis were computed using the GNU R packages survival (version 3.1-8) and survminer (version 0.4.9). Replicates were pooled and analysed by the logrank test and the hazard ratio with 95% confidence intervals. LC50 in An. stephensi mosquito were approximated with regression analysis, using GNU R package drc (version 3.0-1) for analysis of dose–response curves (Additional file 1: Fig. S3). The time above LC50 estimation (Additional file 1: Fig. S4) was computed using the GNU R package data.table (version 1.14.6).

An. gambiae = conditions: cited from earlier work
An. stephensi = conditions: cited from earlier work
Aedes aegypti = conditions: cited from earlier work
rh CYP3A5 supersomes = molecular target: T2, rh CYP3A5 supersomes (Homo sapiens, UniProt P20815); assay: Ivermectin metabolism by recombinant human CYP3A5 supersomes; type: in vitro ADME; conditions: 10 µM ivermectin
T2 construct: purchased Corning Life Sciences B.V. (Amsterdam, The Netherlands)
T2 sequence (P20815 whole entry): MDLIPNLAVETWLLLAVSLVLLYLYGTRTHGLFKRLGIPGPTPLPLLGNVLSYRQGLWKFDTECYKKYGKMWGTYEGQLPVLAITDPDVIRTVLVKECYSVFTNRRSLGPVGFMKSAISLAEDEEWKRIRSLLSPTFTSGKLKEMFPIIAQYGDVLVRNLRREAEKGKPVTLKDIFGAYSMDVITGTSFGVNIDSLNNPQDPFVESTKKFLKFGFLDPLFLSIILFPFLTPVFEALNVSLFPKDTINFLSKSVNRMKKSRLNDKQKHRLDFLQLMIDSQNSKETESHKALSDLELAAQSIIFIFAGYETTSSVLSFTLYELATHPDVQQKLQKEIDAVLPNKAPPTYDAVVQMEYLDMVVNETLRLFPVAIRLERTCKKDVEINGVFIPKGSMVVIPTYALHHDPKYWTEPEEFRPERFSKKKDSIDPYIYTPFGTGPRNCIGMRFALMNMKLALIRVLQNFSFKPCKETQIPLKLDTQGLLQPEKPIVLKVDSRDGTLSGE
Method: as §1

[5] = Clinical pharmacokinetics of ivermectin metabolites in blood of healthy volunteers; type: in vivo, human; conditions: for Cmax [ratio]: area/internal standard area ratio; for Cmax [ratio] / Half-life / MRTlast / Tmax: whole blood, 12 subjects, mean ± SE; for Cmax [ratio] / Half-life / MRTlast: 12 mg ivermectin, NCA; for Tmax: single oral 12 mg ivermectin
Method: Peripheral venous blood samples were collected before dosing and after 1, 2, 4, 6, 8, 12, 24, 48 and 72 h. Blood samples (50 µL) were extracted by the addition of 150 µL ISTD solution. Samples were mixed for 1 min and centrifuged for 30 min at 3220×g and 15 °C (5810 R centrifuge). Twenty microlitres of supernatant were injected into the LC–MS/MS system to determine the signal intensity of the metabolites.
The different LC–MS/MS settings were applied for the metabolism, pharmacokinetic and metabolite fractioning assays (Additional file 1: Table S1, S2, S3). All analyses were performed on a modular HPLC (Shimadzu, Kyoto, Japan) composed of four pumps (2 × LC-30AD, 2 × LC-20AD), an autosampler (SIL 30-AC MP), a system controller (CBM-20A), two degassing units (DGU-20A5 and DGU-20A3R), a column oven (CTO-20AC), a low-pressure valve (FCV-12AH), and a fraction collector (FRC-12A). The HPLC system was connected to an API 5000 triple quadrupole mass spectrometer (AB Sciex, Ontario, Canada) that was equipped with a turbo electrospray ionization source. The system was operated with Analyst Software 1.7 (AB Sciex) and acquired data were analysed using MultiQuant Software 3.0.3 (AB Sciex).
The integral method “linear up log down” was used on area/internal standard area ratio.
In total, three T0 blank blood samples originating from different PK study participants were used to resuspend the metabolites (Additional file 1: Table S5). The signal intensity was recorded for every metabolite by extracting the 50 µL blood with 150 µL of ISTD solution. The metabolite peak area was determined by LC–MS/MS (see section LC-MS/MS analysis of ivermectin). Moreover, the PK samples of all study participants were equally extracted and analysed to derive the maximal blood level (Cmax) from the blood level-time curves. Afterwards, the mean metabolite peak area of the spiked blank blood was compared with the mean peak area of the Cmax samples (Additional file 1: Table S5). The amount of each metabolite fraction was either reduced or increased to match the peak area of Cmax samples. If the metabolite was not detectable in PK samples, the amount of metabolite was adjusted to the lower limit of detection of the method. In this case, blank blood was spiked with the metabolite fraction to receive a signal intensity that is three times larger than the corresponding noise level.

[6] = mean of PK subjects 1-12, 50 µL blood
[7] = Cmax = maximal peak area in human PK samples

CCC(C)C1OC2(CCC1C)CC1CC(CC=C(C)C(OC3CC(OC)C(OC4CC(OC)C(O)C(C)O4)C(C)O3)C(C)C=CC=C3COC4C(O)C(C)=CC(C(=O)O1)C34O)O2 (stereo not shown) [Ivermectin, 22,23-dihydroavermectin B1a, reference compound]
Cmax [1]: 0.0707 ± 0.0161 µg/mL | Half-life [1]: 38.9 ± 20.8 h | Tmax [1]: 4.4 ± 1.4 h | estimated half-life [2]: 24 to 72 h | peak concentration ([2]; single oral dose of 150 µg/kg): around 40 ng/mL | time of peak concentration ([2]; single oral dose of 150 µg/kg): Approximately 4 h | Average activity score ([3]; 0 h post feeding): 2.00 | Average activity score ([3]; 24 h post feeding): 0.71 ± 0.05 | Average activity score ([3]; 24 h post feeding, listed as IVM): 0.71 | Average activity score ([3]; 48 h post feeding): 0.03 ± 0.02 | Average activity score ([3]; 48 h post feeding, listed as IVM): 0.03 | Average activity score ([3]; 72 h post feeding): 0 | mean survival of mosquitoes after blood meal [3]: decreased | mosquitoes dead after 72 h [3]: 100% | ivermectin metabolised (rh CYP3A4 supersomes; within 1 h): 80% | 3-day LC50 [4]: 3.07 ng/mL | LC50 ([4]; Anopheles stephensi, 72 h): ~3 ng/mL (≈ 3.43 nM) | 7-day-LC50 (An. gambiae; blood fed from treated humans): 3.4 ng/mL | 7-day-LC50 (An. gambiae; spiked ivermectin experiments (in vitro mixture)): 15.9 ng/mL | 4-day-LC50 (An. stephensi): 7 ng/mL | LC50 within 7-days (Aedes aegypti): 178 to 187 ng/mL | ivermectin metabolised (rh CYP3A5 supersomes; within 1 h): 20%

CCC(C)C1OC2(CCC1C)CC1CC(CC=C(C)C(OC3CC(OC)C(OC4CC(O)C(O)C(C)O4)C(C)O3)C(C)C=CC=C3COC4C(O)C(C)=CC(C(=O)O1)C34O)O2 (stereo not shown) [M1, 3″-O-desmethyl-H2B1a]
Observed Cmax, peak area ([5]; PK subject 1, 50 µL blood): 1.95E+04 counts | Observed Cmax, peak area ([5]; PK subject 2, 50 µL blood): 1.01E+04 counts | Observed Cmax, peak area ([5]; PK subject 3, 50 µL blood): 1.39E+04 counts | Observed Cmax, peak area ([5]; PK subject 4, 50 µL blood): 8.48E+03 counts | Observed Cmax, peak area ([5]; PK subject 5, 50 µL blood): 9.52E+03 counts | Observed Cmax, peak area ([5]; PK subject 6, 50 µL blood): 2.33E+04 counts | Observed Cmax, peak area ([5]; PK subject 7, 50 µL blood): 1.56E+04 counts | Observed Cmax, peak area ([5]; PK subject 8, 50 µL blood): 1.79E+04 counts | Observed Cmax, peak area ([5]; PK subject 9, 50 µL blood): 1.28E+04 counts | Observed Cmax, peak area ([5]; PK subject 10, 50 µL blood): 1.60E+04 counts | Observed Cmax, peak area ([5]; PK subject 11, 50 µL blood): 2.28E+04 counts | Observed Cmax, peak area ([5]; PK subject 12, 50 µL blood): 1.78E+04 counts | Cmax [ratio] [5]: 0.011 ± 0.001 ratio | Observed Cmax, peak area [5, 6]: 1.56E+04 counts | Half-life [5]: 54.2 ± 4.7 h | MRTlast [5]: 33.8 ± 0.9 h | Tmax [5]: 7.0 ± 0.5 h | Average activity score ([3]; 0 h post feeding): 2.00 | Average activity score ([3]; 24 h post feeding): 1.07 and 1.07 ± 0.04 | Average activity score ([3]; 48 h post feeding): 0.23 and 0.23 ± 0.02 | Average activity score ([3]; 72 h post feeding): 0.01 | activity against An. stephensi [3]: active | mean survival of mosquitoes after blood meal [3]: decreased | mosquitoes dead after 72 h [3]: 98.8% | 3-day LC50 [4, 7]: 0.25 Cmax

CCC(C)C1OC2(CCC1C)CC1CC(CC=C(C)C(OC3CC(OC)C(OC4CC(OC)C(O)C(C)O4)C(C)O3)C(C)C=CC=C3COC4C(O)C(CO)=CC(C(=O)O1)C34O)O2 (stereo not shown) [M2, 4-hydroxy-H2B1a]
Observed Cmax, peak area ([5]; PK subject 1, 50 µL blood): 1.84E+04 counts | Observed Cmax, peak area ([5]; PK subject 2, 50 µL blood): 9.36E+03 counts | Observed Cmax, peak area ([5]; PK subject 3, 50 µL blood): 1.31E+04 counts | Observed Cmax, peak area ([5]; PK subject 4, 50 µL blood): 7.42E+03 counts | Observed Cmax, peak area ([5]; PK subject 5, 50 µL blood): 9.63E+03 counts | Observed Cmax, peak area ([5]; PK subject 6, 50 µL blood): 2.00E+04 counts | Observed Cmax, peak area ([5]; PK subject 7, 50 µL blood): 1.39E+04 counts | Observed Cmax, peak area ([5]; PK subject 8, 50 µL blood): 1.25E+04 counts | Observed Cmax, peak area ([5]; PK subject 9, 50 µL blood): 1.08E+04 counts | Observed Cmax, peak area ([5]; PK subject 10, 50 µL blood): 1.50E+04 counts | Observed Cmax, peak area ([5]; PK subject 11, 50 µL blood): 1.64E+04 counts | Observed Cmax, peak area ([5]; PK subject 12, 50 µL blood): 1.59E+04 counts | Cmax [ratio] [5]: 0.010 ± 0.0010 ratio | Observed Cmax, peak area [5, 6]: 1.35E+04 counts | Half-life [5]: 31.9 ± 3.4 h | MRTlast [5]: 25.8 ± 0.7 h | Tmax [5]: 6.3 ± 0.3 h | Average activity score ([3]; 0 h post feeding): 2.00 | Average activity score ([3]; 24 h post feeding): 1.20 and 1.20 ± 0.12 | Average activity score ([3]; 48 h post feeding): 0.28 and 0.28 ± 0.05 | Average activity score ([3]; 72 h post feeding): 0 | activity against An. stephensi [3]: active | mean survival of mosquitoes after blood meal [3]: decreased | mosquitoes dead after 72 h [3]: 100% | 3-day LC50 [4, 7]: 0.21 Cmax

CC[C@H](C)[C@H]1O[C@]2(CC[C@@H]1CO)C[C@@H]1C[C@@H](C/C=C(\C)[C@@H](O[C@H]3C[C@H](OC)[C@@H](O[C@H]4C[C@H](OC)[C@@H](O)[C@H](C)O4)[C@H](C)O3)[C@@H](C)/C=C/C=C3\CO[C@@H]4[C@H](O)C(C)=C[C@@H](C(=O)O1)[C@]34O)O2 [M9, 24-hydroxy-H2B1a]
detection in pharmacokinetic samples ([5]; human blood after single oral 12 mg ivermectin): Only traces | Average activity score ([3]; 0 h post feeding): 2.00 | Average activity score ([3]; 24 h post feeding): 1.92 | Average activity score ([3]; 48 h post feeding): 1.87 | Average activity score ([3]; 72 h post feeding): 1.64 | metabolite formation by CYP3A4 (rh CYP3A4 supersomes): only minor amounts | metabolite formation by CYP3A5 (rh CYP3A5 supersomes): mainly produced by CYP3A5; also recorded: very effective
